In PubChem BioAssay AID248 (DTP/NCI, 2004):
“And” between values parts separate entries of the source, which are not always exact repeats. Equal values may be shown once. Inconclusive results and toxic doses are left out. Rule as the data show it: active = T/C of 150% or more; inactive = T/C below 125%.

Test system: L1210 leukemia ip in BDF1 mice, survival T/C
Test: NCI In Vivo Anticancer Drug Screen. Data for tumor model L1210 Leukemia (intraperitoneal) in B6D2F1 (BDF1) mice
Details: endpoint: mean survival time, higher = longer survival
Summary of the method: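 Transplanted-tumor mice were given test agent; controls received vehicle only. Survival readings from the two groups were divided (treated over control).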

[1] = dose: 100.0 mg/kg/injection, schedule: Q01DX009 (ip), vehicle: Klucel (hydroxypropylcellulose) (HPC)
[2] = dose: 200.0 mg/kg/injection, schedule: Q01DX009 (ip), vehicle: Klucel (hydroxypropylcellulose) (HPC)
[3] = dose: 400.0 mg/kg/injection, schedule: Q01DX009 (ip), vehicle: Klucel (hydroxypropylcellulose) (HPC)
[4] = dose: 100.0 mg/kg/injection, schedule: Q04DX002 (ip), vehicle: Klucel (hydroxypropylcellulose) (HPC)
[5] = dose: 200.0 mg/kg/injection, schedule: Q04DX002 (ip), vehicle: Klucel (hydroxypropylcellulose) (HPC)
[6] = dose: 400.0 mg/kg/injection, schedule: Q04DX002 (ip), vehicle: Klucel (hydroxypropylcellulose) (HPC)

Measured: T/C

Cc1cccc(Cl)c1NC(=O)Nc1ccc(CCO)cc1
inactive: [1] 103 % of control | [2] 97 % of control | [3] 94 % of control

O=C(O)C1CC1C(=O)c1ccccc1 (centres undefined)
inactive: dose: 25.0 mg/kg/injection, schedule: Q01DX001 (ip), vehicle: Klucel (hydroxypropylcellulose) (HPC) 98 % of control | dose: 50.0 mg/kg/injection, schedule: Q01DX001 (ip), vehicle: Klucel (hydroxypropylcellulose) (HPC) 97 % of control | dose: 100.0 mg/kg/injection, schedule: Q01DX001 (ip), vehicle: Klucel (hydroxypropylcellulose) (HPC) 96 % of control and 98 % of control | dose: 200.0 mg/kg/injection, schedule: Q01DX001 (ip), vehicle: Klucel (hydroxypropylcellulose) (HPC) 86 % of control | dose: 400.0 mg/kg/injection, schedule: Q01DX001 (ip), vehicle: Klucel (hydroxypropylcellulose) (HPC) 103 % of control

NC(N)=N/N=C/c1ccc[nH]1
inactive: dose: 15.0 mg/kg/injection, schedule: Q01DX Z (ip), vehicle: saline 94 % of control | dose: 30.0 mg/kg/injection, schedule: Q01DX Z (ip), vehicle: saline 99 % of control | dose: 60.0 mg/kg/injection, schedule: Q01DX Z (ip), vehicle: saline 96 % of control | dose: 120.0 mg/kg/injection, schedule: Q01DX Z (ip), vehicle: saline 91 % of control | dose: 120.0 mg/kg/injection, schedule: Q01DX Z (oral), vehicle: saline 105 % of control | dose: 240.0 mg/kg/injection, schedule: Q01DX Z (ip), vehicle: saline 93 % of control | dose: 240.0 mg/kg/injection, schedule: Q01DX Z (oral), vehicle: saline 106 % of control | dose: 480.0 mg/kg/injection, schedule: Q01DX Z (ip), vehicle: saline 98 % of control | dose: 480.0 mg/kg/injection, schedule: Q01DX Z (oral), vehicle: saline 103 % of control | dose: 960.0 mg/kg/injection, schedule: Q01DX Z (oral), vehicle: saline 103 % of control

c1ccc2[nH]c(SCCSc3nc4ccccc4[nH]3)nc2c1
inactive: [4] 111 % of control | [5] 107 % of control | [6] 92 % of control

O=c1[nH]cc(Cl)cc1Cl
inactive: [1] 94 % of control | [2] 94 % of control | [3] 108 % of control

CC(C)n1cnc2c(=S)nc[nH]c21
active: dose: 58.0 mg/kg/injection, schedule: Q01DX Z (oral), vehicle: carboxymethylcellulose (CMC) 152 % of control
inactive: dose: 3.12 mg/kg/injection, schedule: Q01DX Z (ip), vehicle: carboxymethylcellulose (CMC) 106 % of control | dose: 7.25 mg/kg/injection, schedule: Q01DX Z (ip), vehicle: carboxymethylcellulose (CMC) 103 % of control | dose: 7.25 mg/kg/injection, schedule: Q01DX Z (oral), vehicle: carboxymethylcellulose (CMC) 110 % of control | dose: 14.5 mg/kg/injection, schedule: Q01DX Z (ip), vehicle: carboxymethylcellulose (CMC) 110 % of control | dose: 14.5 mg/kg/injection, schedule: Q01DX Z (oral), vehicle: carboxymethylcellulose (CMC) 118 % of control | dose: 29.0 mg/kg/injection, schedule: Q01DX Z (ip), vehicle: carboxymethylcellulose (CMC) 116 % of control | dose: 210.0 mg/kg/injection, schedule: Q01DX Z (ip), vehicle: carboxymethylcellulose (CMC) 90 % of control

Cc1cc(C(C)(C)c2cc(C)c(O)c(C)c2)cc(C)c1O
inactive: dose: 100.0 mg/kg/injection, schedule: Q01DX009 (ip), vehicle: saline with Tween-80 95 % of control | dose: 100.0 mg/kg/injection, schedule: Q04DX003 (ip), vehicle: saline with Tween-80 105 % of control | dose: 200.0 mg/kg/injection, schedule: Q01DX009 (ip), vehicle: saline with Tween-80 93 % of control | dose: 200.0 mg/kg/injection, schedule: Q04DX003 (ip), vehicle: saline with Tween-80 102 % of control | dose: 400.0 mg/kg/injection, schedule: Q01DX009 (ip), vehicle: saline with Tween-80 97 % of control | dose: 400.0 mg/kg/injection, schedule: Q04DX003 (ip), vehicle: saline with Tween-80 96 % of control

Br/C(=C(/Br)c1ccccc1)c1ccccc1
inactive: dose: 50.0 mg/kg/injection, schedule: Q01DX009 (ip), vehicle: Klucel (hydroxypropylcellulose) (HPC) 105 % of control | [1] 91 % of control | [2] 102 % of control

N#C/C(=C\C1CCCC([N+](=O)[O-])C1)C1CCC([N+](=O)[O-])CC1 (centres undefined)
inactive: [4] 122 % of control | [5] 100 % of control | [6] 100 % of control
